Assay results published in patent US20170216252A1, “ANTI-BACTERIAL PYRUVATE KINASE MODULATOR COMPOUNDS, COMPOSITIONS, USES AND METHODS” (SIMON FRASER UNIVERSITY, priority 2014, published 2017).
≈ marks a conversion by molar mass, not a printed value. Where two headings read alike, the source gives them in different places.

Key:
[1] = biological target: T1, MRSA PK (Staphylococcus aureus, UniProt Q6GG09); assay: MRSA PK activity, continuous LDH-coupled assay; type: biochemical, S. aureus (MRSA strain Sanger 252)
T1 construct: His tag (pET-28a(+) vector) (N); made in house; host or cells: E. coli BL-21 (DE3)
T1 sequence (Q6GG09 whole entry): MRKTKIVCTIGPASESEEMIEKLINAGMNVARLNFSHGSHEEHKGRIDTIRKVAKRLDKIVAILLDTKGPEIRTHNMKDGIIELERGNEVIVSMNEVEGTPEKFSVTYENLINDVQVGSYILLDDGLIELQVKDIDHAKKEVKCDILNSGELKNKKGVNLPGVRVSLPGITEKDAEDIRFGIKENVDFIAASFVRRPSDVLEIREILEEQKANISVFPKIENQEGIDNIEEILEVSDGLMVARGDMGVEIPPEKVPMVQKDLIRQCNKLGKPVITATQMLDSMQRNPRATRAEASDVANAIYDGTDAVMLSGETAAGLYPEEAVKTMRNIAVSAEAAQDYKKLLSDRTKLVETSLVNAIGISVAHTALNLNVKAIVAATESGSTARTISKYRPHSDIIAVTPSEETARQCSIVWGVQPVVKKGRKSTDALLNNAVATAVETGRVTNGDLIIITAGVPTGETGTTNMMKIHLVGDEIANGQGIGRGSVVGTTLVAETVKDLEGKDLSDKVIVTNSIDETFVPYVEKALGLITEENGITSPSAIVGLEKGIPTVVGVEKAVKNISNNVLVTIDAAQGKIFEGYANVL
Description: Genomic DNA of MRSA strain Sanger 252 extracted using DNeasy Tissue Kit™ (Qiagen™) was used as a template to generate the His-tagged MRSA PK. Human cDNA from MCF-7 breast cancer cell line (courtesy of Dr. J Wong, BC Cancer Research Center (Vancouver, Canada) was used as a template to generate the full-length human M2 PK enzyme. The following primer sets were used creating appropriate restriction sites (NdeI and XhoI sites underlined): For cloning of MRSA PK: M27F 5′-[…]-3′ and M27R 5′-[…]-3′, for cloning of human M2 PK isoform: hM2F 5′-[…]-3′ and hM2R 5′-[…]-3′. The resulting PCR fragments for each construct were cloned into the NdeI and XhoI unique sites of the bacterial expression vector pET-28a (+) (Novagen™). […] The sequence and the correct reading frame of all constructs were verified by sequencing. Human M1, R and L PK constructs in pET-28-a(+) vectors (courtesy of Dr. L. Cantley, Harvard Medical, School (Boston, USA)) were used to generate relevant recombinant His-tagged human PK isoforms.
MRSA and human constructs in pET-28a(+) were used to express relevant recombinant PK proteins in E. coli BL-21 (DE3). The proteins were expressed and purified using Ni-NTA agarose (Qiagen™) according to the manufacturer's protocol. Briefly, cells were grown to an absorbance of 0.4-0.5 at 600 nm in 2×YT medium, then induced with 0.1 mM IPTG for 3 h at 20° C. Cells were lysed by sonication on ice (3×10-s bursts with a 30-s recovery between bursts) in lysis buffer (0.2 mg/ml lysozyme, 50 mM Tris pH 7.5, 10 mM MgCl2, 200 mM NaCl, 100 mM KCl, 10% glycerol, 10 mM imidazole, 0.5% NP-40 and 1 mM DTT containing Complete™ protease inhibitor). Cell lysates were cleared by centrifugation (18,000×g in a Beckman™ JA-20 rotor) for 20 min at 4° C. and PK isoforms were purified by batch binding to Ni-NTA resin. The resins were then packed in columns (1×2 cm) and washed with 400 column volumes lysis buffer containing 30 mM imidazole. His-tagged PK isoforms were eluted with the same buffer containing 300 mM imidazole. The proteins were dialyzed overnight at 4° C. against 2000 volumes of ice-cold 30 mM Tris pH 7.5, 25 mM KCl, 5 mM MgCl2, 10% glycerol and 1 mM DTT to remove imidazole. All purification steps were done at 4° C.; enzymes were flash-frozen and stored at −70° C. […] Purity and physical integrity of proteins were assessed using SDS-polyacrylamide gel electrophoresis (SDS-PAGE) followed by coomassie blue staining. Protein concentration was estimated by Bradford assay (Bio-Rad Protein Assay™) using bovine serum albumin as a standard.
Candidate MRSA PK inhibitors were assayed for their ability to inhibit enzymatic activities of MRSA and human PKs. PK activity was determined using a continuous assay coupled to lactate dehydrogenase (LDH) in which the change in absorbance at 340 nm owing to oxidation of NADH was measured using a Benchmark Plus™ microplate spectrophotometer (Bio-Rad Laboratories, Hercules, Calif.). […] Reactions were initiated by the addition of 15 nM of one of the PK enzymes. PK activity proportional to the rate of change at 340 nm was expressed as specific activity (μmol/min/mg), which is defined as the amount of PK that catalyzes the formation of one micromole of either product per minute. Inhibitors were dissolved in DMSO with the final concentration of the solvent never exceeding 1% of the assay volume. IC50 values were calculated by curve fitting on a four-parameter dose-response model with variable slope using Graphpad Prism 5.0™ (GraphPad™ Software Inc., La Jolla, Calif.). […] Reactions were performed at 30° C. for up to 5 min. All values determined represent at least two measurements, in triplicate (Tables 1-6) or duplicate unless mentioned otherwise.

[2] = system: S. aureus ATCC 29213; assay: In vitro susceptibility, broth microdilution MIC; type: cell-based, Staphylococcus aureus; settings: Staphylococcus aureus, read-out: MIC
Procedure: The antimicrobial activities of PK inhibitor candidates were determined using the 96-well microtiter standard 2-fold serial broth microdilution method as described by CLSI (formerly NCCLS) with the various gram-positive and gram-negative bacteria species mentioned above. Bacteria from a single colony were grown, overnight in either BHI Broth (VRE), mueller hinton broth (S. aureus 29213; MRSA USA400) or L-broth (E. coli, P. aeruginosa, S. typhimuriu, K. Pneumonia and A. baumannii). […] Culture plates were incubated for 18-24 h at 37° C., and optical density at 600 nm (OD600) was measured using a Benchmark Plus™ microplate spectrophotometer (Bio-Rad™). The absorbance control values for the series containing CAMHB and inhibitor were subtracted as background from the corresponding infected wells. The MIC was defined as the lowest concentration of test compound leading to complete inhibition of cell growth in relationship to compound-free control wells as determined by optical density. […] All assays were run in triplicate (Tables 1-6) or duplicate. Experiments were replicated at least twice to verify reproducibility using the above conditions.

[3] = ATCC29213, Table 8, tested at least in duplicate, differing values all given
[4] = ATCC29213, Tables 1-6 and text, minimum concentration to give >98% inhibition of growth
[5] = Tables 1-6, 2 mM ADP, 10 mM PEP, 15 nM PK, read-out: IC50
[6] = read-out: % inhibition at the highest concentration tested (IC50)

## Brc1cncc(/C=C/c2cc3ccc(Br)cc3[nH]2)c1 [Compound 100, (E)-6-Bromo-2-(2-(5-bromopyridin-3-yl)vinyl)-1H-indole]
[1]
  IC50: > 1000 nM
[2]; [3]
  MIC: > 64 µg/mL

## Brc1ccc(/C=C/c2cc3ccc(Br)cc3[nH]2)cc1 [Compound 36b, (E)-6-bromo-2-(4-bromostyryl)-1H-indole]
[1]
  IC50: 1 nM
[2]; [4]
  MIC: > 64 µg/mL

## Brc1ccc2cc(C#Cc3cc4ccc(Br)cc4[nH]3)[nH]c2c1 [Compound 25b, 1,2-Bis(6-bromo-1H-indol-2-yl)ethyne]
[1]; [5]
  IC50: 2.4 nM
[2]; [4]
  MIC: > 64 µg/mL

## Clc1cc(Cl)cc(CCc2cc3ccc(Br)cc3[nH]2)c1 [Compound 119, 6-Bromo-2-(3,5-dichlorophenethyl)-1H-indole]
[1]
  IC50: > 100000 nM
[2]; [3]
  MIC: > 64 µg/mL

## Clc1cnc(C#Cc2cc3ccc(Br)cc3[nH]2)nc1 [Compound 142, 6-Bromo-2-((5-chloropyrimidin-2-yl)ethynyl)-1H-indole]
[1]
  IC50: 50 to 100 nM
[2]; [3]
  MIC: > 64 µg/mL

## Cn1c(C#Cc2cc3cc(Br)ccc3[nH]2)cc2cc(Br)ccc21 [Compound 48, 5-Bromo-2-((5-bromo-1H-indol-2-yl)ethynyl)-1-methyl-1H-indole]
[1]; [6]
  inhibition at 10 µM: 60%
[2]; [4]
  MIC: > 64 µg/mL

## Brc1ccc2cc(/C=C/c3ccc(-n4ccnc4)cc3)[nH]c2c1 [Compound 104, (E)-2-(4-(1H-Imidazol-1-yl)styryl)-6-bromo-1H-indole]
[1]
  IC50: > 1000 nM
[2]; [3]
  MIC: > 64 µg/mL

## COc1ccc2[nH]c(-c3[nH]c4cc(Br)ccc4c3C(=O)C(F)(F)F)cc2c1 [Compound 179, 1-(6-bromo-5′-methoxy-1H,1′H-[2,2′-biindol]-3-yl)-2,2,2-trifluoroethan-1-one]
[1]
  IC50: < 50 nM
[2]; [3]
  MIC: 64 µg/mL (≈ 146 µM)

## O=C(c1c(/C=C/c2ccc(Br)cn2)[nH]c2cc(Br)ccc12)C(F)(F)F [Compound 174, (E)-1-(6-Bromo-2-(2-(5-bromopyridin-2-yl)vinyl)-1H-indol-3-yl)-2,2,2-trifluoroethanone]
[1]
  IC50: > 1000 nM
[2]; [3]
  MIC: 32 µg/mL (≈ 67.5 µM)

## Brc1cncc(CCc2cc3ccc(Br)cc3[nH]2)c1 [Compound 121, 6-Bromo-2-(2-(5-bromopyridin-3-yl)ethyl)-1H-indole]
[1]
  IC50: > 1000 nM
[2]; [3]
  MIC: > 64 µg/mL

## O=C(Nc1nc2cc(Br)ccc2s1)c1cc2ccccc2[nH]1 [Compound 53, N-(5-Bromobenzo[d]thiazol-2-yl)-1H-indole-2-carboxamide]
[1]; [5]
  IC50: 50.9 nM
[2]; [4]
  MIC: > 64 µg/mL

## COC(=O)c1c(C(=O)Nc2ccc(Br)cc2)[nH]c2cc(Br)ccc12 [Compound 131, Methyl 6-bromo-2-((4-bromophenyl)carbamoyl)-1H-indole-3-carboxylate]
[1]
  EC50: 15 nM
[2]; [3]
  MIC: > 64 µg/mL

## CC(C)C(=O)c1c(CCc2ccc(Cl)cc2)[nH]c2cc(Br)ccc12 [Compound 39c, 1-(6-bromo-2-(4-chlorophenethyl)-1H-indol-3-yl)-2-methylpropan-1-one]
[1]
  IC50: 28 nM
[2]; [4]
  MIC: 4 µg/mL (≈ 9.88 µM)

## COC(=O)c1c(C(=O)Nc2ccc(Cl)nc2)[nH]c2cc(Br)ccc12 [Compound 138, Methyl 6-bromo-2-((6-chloropyridin-3-yl)carbamoyl)-1H-indole-3-carboxylate]
[1]
  IC50: < 50 nM
[2]; [3]
  MIC: > 64 µg/mL

## c1ccc2[nH]c(-c3ccc(-c4cc5ccccc5[nH]4)cc3)cc2c1 [Compound 46]
[1]; [6]
  inhibition at 10 µM: 52%
[2]; [4]
  MIC: > 16 µg/mL

## O=C(Nc1nc2ccc(Br)cc2s1)c1ccc(Br)cc1O [Compound 67, 4-Bromo-N-(6-bromobenzo[d]thiazol-2-yl)-2-hydroxybenzamide]
[1]; [5]
  IC50: 214 nM
[2]; [4]
  MIC: > 64 µg/mL

## COC(=O)c1c(C(=O)Nc2ccc(OC)nc2)[nH]c2cc(Br)ccc12 [Compound 135, Methyl 6-bromo-2-((6-methoxypyridin-3-yl)carbamoyl)-1H-indole-3-carboxylate]
[1]
  EC50: 31.7 nM
[2]; [3]
  MIC: > 64 µg/mL

## Brc1ccc(-c2cc3ccc(Br)cc3[nH]2)cc1 [Compound 55, 6-bromo-2-(4-bromophenyl)-1H-indole]
[1]
  IC50: 56.9 nM
[2]; [4]
  MIC: > 64 µg/mL

## Oc1ccc(Br)cc1/C=N/c1nc2ccc(Br)cc2s1 [Compound 58]
[1]; [6]
  inhibition at 10 µM: 77%
[2]; [4]
  MIC: 64 µg/mL (≈ 155 µM)

## O=C(Nc1nc2ccccc2s1)c1cc(Br)ccc1O [Compound 56]
[1]; [6]
  inhibition at 10 µM: 76%
[2]; [4]
  MIC: > 64 µg/mL

## CC(=O)c1c(CCc2ccc(Cl)cc2)[nH]c2cc(Br)ccc12 [Compound 39b, 1-(6-bromo-2-(4-chlorophenethyl)-1H-indol-3-yl)ethanone]
[1]
  IC50: 28 nM
[2]; [4]
  MIC: 4 µg/mL (≈ 10.6 µM)

## O=C(Nc1nc2ccc(Br)cc2s1)c1cc2ccccc2[nH]1 [Compound 54, N-(6-Bromobenzo[d]thiazol-2-yl)-1H-indole-2-carboxamide]
[1]; [5]
  IC50: 11.1 nM
[2]; [4]
  MIC: > 64 µg/mL

## O=C1c2ccc(Br)cc2C(=O)N1c1nc2ccc(Br)cc2s1 [Compound 65, 5-bromo-2-(6-bromobenzo[d]thiazol-2-yl)isoindoline-1,3-dione]
[1]; [6]
  inhibition at 10 µM: 76%
[2]; [4]
  MIC: > 64 µg/mL

## COC(=O)c1cc(Br)cc2[nH]c(/C=C/c3ccc(Cl)cc3)cc12 [Compound 157, (E)-Methyl 6-bromo-2-(4-chlorostyryl)-1H-indole-4-carboxylate]
[1]
  IC50: > 1000 nM
[2]; [3]
  MIC: > 64 µg/mL

## O=C(Nc1ccc(Br)cc1)c1cc2ccc(Br)cc2[nH]1 [Compound 63, 6-Bromo-N-(4-bromophenyl)-1H-indole-2-carboxamide]
[1]
  IC50: 9.7 nM
[2]; [4]
  MIC: > 64 µg/mL

## O=C(Nc1nc2ccc(Br)cc2[nH]1)c1cc(Br)ccc1O [Compound 78, 5-Bromo-N-(6-bromo-1H-benzo[d]imidazol-2-yl)-2-hydroxybenzamide]
[1]
  IC50: 11.3 nM
[2]; [4]
  MIC: 4 µg/mL (≈ 9.73 µM)

## COc1c(Br)cccc1C(=O)Nc1nc2ccc(Br)cc2s1 [Compound 84, 3-Bromo-N-(6-bromobenzo[d]thiazol-2-yl)-2-methoxybenzamide]
[1]; [6]
  inhibition at 10 µM: 84%
[2]; [4]
  MIC: > 64 µg/mL

## Brc1ccc2cc(-c3ccc(-c4cc5ccc(Br)cc5[nH]4)cc3)[nH]c2c1 [Compound 33a, 1,4-bis(6-bromo-1H-indol-2-yl)benzene]
[1]; [6]
  inhibition at 1 µM: 54%
[2]; [4]
  MIC: > 64 µg/mL

## Brc1ccc(-c2cncc(-c3cc4ccccc4[nH]3)n2)cc1 [Compound 60, 2-(6-(4-Bromophenyl)pyrazin-2-yl)-1H-indole]
[1]; [6]
  inhibition at 10 µM: 79%
[2]; [4]
  MIC: > 64 µg/mL
